Results: patent publication US20080125432A1 (Devgen NV, priority 2004, published 2008)
Like-named read-outs stand apart in the source and are kept apart here.

What was measured:
human Kv4.3 = molecular target: T1, human Kv4.3 (Homo sapiens, UniProt Q9UK17); assay: C. elegans based high-throughput screen for Kv4.3 modulators (pharynx pumping, Calcein AM uptake), transgenic strain UG1755; format: in vivo; settings: for Ratio N2/Kv4.3: EC50 on N2 divided by EC50 on the Kv4.3 expressing strain, cut-off 1.8; for EC50: transgenic strain UG1755 expressing human Kv4.3, read-out: EC50 (μM) Kv4.3 worm
T1 construct: expressed in transfected cells; host or cells: transgenic C. elegans strain UG1755 (N2 injected with plasmid pGV8, integrated array)
T1 sequence (Q9UK17 1-655): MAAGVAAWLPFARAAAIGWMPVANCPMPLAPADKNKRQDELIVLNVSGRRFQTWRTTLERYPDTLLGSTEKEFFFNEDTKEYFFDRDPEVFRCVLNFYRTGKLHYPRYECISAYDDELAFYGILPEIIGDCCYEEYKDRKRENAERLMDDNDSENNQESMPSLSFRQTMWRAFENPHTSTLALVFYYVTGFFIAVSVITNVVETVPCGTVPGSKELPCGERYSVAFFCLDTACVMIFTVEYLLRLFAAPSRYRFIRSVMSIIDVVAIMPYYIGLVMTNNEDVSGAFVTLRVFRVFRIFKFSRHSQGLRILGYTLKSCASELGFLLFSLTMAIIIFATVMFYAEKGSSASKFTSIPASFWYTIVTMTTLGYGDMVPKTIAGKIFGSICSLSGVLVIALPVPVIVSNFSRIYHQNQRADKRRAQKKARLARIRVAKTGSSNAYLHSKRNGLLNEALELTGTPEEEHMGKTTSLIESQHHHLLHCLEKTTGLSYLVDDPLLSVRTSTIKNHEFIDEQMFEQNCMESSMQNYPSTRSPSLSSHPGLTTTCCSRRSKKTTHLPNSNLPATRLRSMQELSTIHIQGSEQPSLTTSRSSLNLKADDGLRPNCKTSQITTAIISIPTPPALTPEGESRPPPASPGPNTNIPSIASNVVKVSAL
Excerpt: A C. elegans based high-throughput screen for Kv4.3 modulators has been used to establish an in vivo SAR (structure-activity relationships: the effect of chemical structure on biological activity) on Kv4.3 for the compounds according to the present invention.
This assay has employed a stable transgenic C. elegans strain that functionally expressed human Kv4.3 in the pharynx and a visible selection GFP maker in body-wall muscle.
The pharynx is the feeding organ of C. elegans and contracts rhythmically 3-4 times per second. The pharynx contraction is controlled by the nervous system via action potentials similar to the human myocyte and can thus be used to study human ion channel physiology in vivo in C. elegans.
Introducing the human Kv4.3 channel into the C. elegans pharynx influences the C. elegans action potential in a characteristic fashion. The additional number of potassium channels increases potassium ion efflux, enhances re-polarization and thereby shortens the action potential duration. […] The shortened action potentials of the C. elegans pharynx resulting from expression of human Kv4.3, changes the pharynx contraction-relaxation cycle and consequently reduces the pumping/feeding in these transgenic animals. This change of pumping is an end-point amenable to high-throughput screening technology. The pumping end-point can be technically translated into a high-throughput read-out by the use of a pro-fluorescent dye. The pro-fluorescent dye is taken up by C. elegans depending on its pumping activity and converted into a fluorescent dye by enzymes located in its intestines. After a defined incubation period, the change of fluorescence intensity in the intestine can be measured with a plate reader.
(§1) The screening of the compounds according to the present invention has been performed in the C. elegans based high-throughput screen for Kv4.3 modulators described above. The method for testing the activity on human Kv4.3 of the compounds according to the invention with C. elegans strains expressing human Kv4.3 for their activity is the same as the method described in WO 03/097682. The method for testing the compounds on wild-type C. elegans strains not expressing human Kv4.3 is the same as the method described in WO 00/63427. Briefly, UG1755 animals have been grown in large numbers and staged young adults (no or only few eggs inside the uterus) have been harvested on the day of screening. Approximately 125 animals in 80 μl buffer have been dispensed per well of a “U shaped 96-well compound plate The compound plate contained already compound material at a final concentration of 30 μM in 0.3% DMSO. After one hour incubation 10 μl of the fluorescent label Calcein AM (CAM) have been added to achieve a final concentration of 5 μM CAM and 0.8% DMSO. After another four hours of incubation at 20° C., the drinking of C. elegans animals (or the “reaction 8 measured by the uptake of CAM) has been stopped by adding 10 μl of a 60 μM ivermectin solution. The fluorescence intensity (counts per second) has been measured 40 minutes after adding ivermectin with the Wallac plate reader at a wavelength of 535 nm (after excitation at 485 nm).
The active compounds have been identified and confirmed by dose-response analysis. An EC50 has been calculated and the results are listed under Table 3. Dose-response curves have been obtained at concentrations of 30 μM. EC50 has been calculated using XLfit 2.09 software package.

[1] = test system: C. elegans wild-type strain N2; assay: Same C. elegans pumping assay format using wild-type strain N2; format: in vivo; settings: read-out: EC50 (μM) Wild type worm N2
Excerpt: as §1
These compounds have been also tested in the same assay format using a C. elegans wild-type strain N2 and the corresponding EC50 has been calculated. The ratio of the EC50s obtained for a compound on the two strains (transgenic expressing human Kv4.3 and wild-type) gives an indication on whether said compound is acting on human Kv4.3. […]

[2] = molecular target: T2, human Kv4.3/KChIP2.2 potassium channel (Homo sapiens, UniProt Q9UK17); assay: Whole cell patch clamp, CHO-K1 cells stably expressing human Kv4.3/KChIP2.2; format: cell-based; settings: CHO-K1
T2 construct: expressed in transfected cells
T2 sequence (Q9UK17 1-655): T1 sequence (Q9UK17 1-655)
Procedure: For this experiment, a recombinant CHO-K1 cell line stably expressing the human Kv4.3/KChIP2.2 potassium channel was used. The cells used for this experiment were kept in continuous culture under standard conditions (37° C., air supplemented with 7% CO2). The CHO-K1 Kv4.3/KChIP2.2 cells were kept in Iscove s modified DMEM (Dulbecco's Modified Eagle's Medium) medium (IMEM) supplemented with 100 U/ml Penicillin, 100 μg/ml Streptomycin, 7% fetal calf serum (FCS), 2.5 μg/ml amphotericin, 400 μg/ml G418, and 400 μg/ml Zeocin™. Cells were passed every 3-4 days after detachment using a Trypsin solution. The quality of the cultured cells was guaranteed by vitality and contamination tests. The culture of the cells was performed as described in protocol D hereunder.
10 mM stock solutions of the compounds were prepared in DMSO. Solutions of the compounds were prepared by dilution of stock solution in bath solution. If the required stock solution volume was theoretically below 1 μl, bath solutions with higher compound concentration were used for dilution. The maximal DMSO concentration during experiments was 0.1% (v/v).
Activity of the human Kv4.3/KChIP2.2 channel was investigated using the patch clamp technique in its whole cell mode. This means that the current needed for clamping the whole cell expressing the K^+-channel protein to a specific potential was measured. Experiments were performed using a patch clamp set-up. Technical equipment needed for manipulation of the cells was placed on a vibration-isolated table and shielded with a Faraday cage to minimize electrical noise. The amplifier and control system were placed in a rack outside the Faraday cage. The system consisted of an EPC9 or EPC10 patch clamp amplifier (HEKA, Lambrecht, Germany), and the perfusion system DADVC8 (ALA Scientific, New York, USA) controlled by the Pulse software package (HEKA, Lambrecht, Germany) installed on a personal computer. The pipettes used for patch clamping were made of borosilicate glass.
Measurements were performed at room temperature (20-25° C.). In each experiment (i.e. each cell) only one concentration of the compounds was investigated no cumulative dosages were performed. Each cell acted as its own control. […]
Between voltage pulses the cell was clamped to a holding potential of −80 mV (inside). The test protocols are illustrated in FIG. 1 and Table 4. The test protocol illustrated in FIG. 1a was used to characterize the properties of the Kv4.3/KChIP2.2 channel and to check the quality of the individual patch clamp experiment (voltage control). […] Each test protocol consisted of 4 segments.
After the whole cell configuration was established a current-voltage curve (IV activation 1; FIG. 1a and Table 4a) was recorded under constant superfusion with bath solution to check for Kv4.3/KChIP2.2 expression and the quality of the individual patch clamp experiment (voltage control). Subsequently, 14 test pulses (series 1; FIG. 1b and Table 4b) were applied at 0.1 Hz under constant superfusion with bath solution. The protocol was initiated by a voltage jump to 100 mV (400 ms) to achieve full inactivation. Then the Kv4.3/KChIP2.2 channels were transferred to the open state by depolarization to +40 mV for 300 milliseconds (activation). Only cells generating current amplitudes between 1 nA and 50 nA were used for the experimental procedure. No or negligible rundown was observed.
Then, 36 test pulses (series 2) were applied at 0.1 Hz under constant superfusion with the compound dissolved in bath solution. Finally, another current-voltage curve was recorded in the presence of the compounds (IV activation 2).
Three different types of analysis were used: Inhibition at the peak current, inhibition of translocated charge and inhibition 75 ms after activation at +40 mV (sustained current). The peak current/charge/current at 75 ms was determined using the online analysis tool of the HEKA pulse software package. […]

[3] = remaining current measured after application of the compound and relative to the blank, read-out: Kv4.3 charge in %
[4] = remaining peak height measured after application of the compound and relative to the blank, read-out: Kv4.3 peak in %

| SMILES | Ratio N2/Kv4.3 (human Kv4.3) | EC50 (human Kv4.3) [µM] | EC50 ([1]; Caenorhabditis elegans) [µM] | EC50 [1] [µM] | melting point [°C] | remaining activity at 1 µM [2, 3] [%] | remaining activity at 1 µM [2, 4] [%] |
| --- | --- | --- | --- | --- | --- | --- | --- |
| Cc1nc(Nc2ccc(F)cc2)sc1C(=O)N[C@@H](C)c1ccc2ccccc2c1 [Compound 15, 2-(4-fluoro-phenylamino)-4-methyl-thiazole-5-carboxylic acid (S)-1-(naphthalen-2-yl)ethyl amide] | 2.4 | 10.1 | 24 | – | – | – | – |
| O=C(N[C@@H]1CCCC[C@H]1OCc1ccccc1)c1csc(Nc2ccc(F)cc2)n1 [Compound 38, 2-(4-fluoro-phenylamino)-thiazole-4-carboxylic acid (1R,2R)-2-(benzyloxycyclohex-1-yl) amide] | 2.5 | 17.3 | 44 | – | – | – | – |
| Cc1cc(C)cc(Nc2nc(C(=O)N[C@H]3CCCC[C@@H]3OCc3ccccc3)cs2)c1 [Compound 46, 2-(3,5-dimethyl-phenylamino)-thiazole-4-carboxylic acid (1S,2S)-2-(benzyloxycyclohex-1-yl) amide] | 2.8 | 14 | 39 | – | – | – | – |
| CCCN(Cc1ccc([N+](=O)[O-])cc1)C(=O)c1csc(Nc2ccc(Cl)cc2)n1 [Compound 42, 2-(4-chloro-phenylamino)-thiazole-4-carboxylic acid (4-nitro-benzyl)-propyl-amide] | 2.0 | 21.4 | 43 | – | – | – | – |
| O=C(N[C@@H]1CCC[C@H]1OCc1ccccc1)c1csc(Nc2ccc(F)cc2)n1 [Compound 37, 2-(4-fluoro-phenylamino)-thiazole-4-carboxylic acid (1R,2R)-2-(benzyloxycyclopent-1-yl) amide] | 3.8 | 6 | 23 | – | – | – | – |
| O=C(N[C@H]1CCCC[C@@H]1OCc1ccccc1)c1csc(Nc2ccc(Cl)cc2)n1 [Compound 41, 2-(4-chloro-phenylamino)-thiazole-4-carboxylic acid (1S,2S)-2-(benzyloxycyclohex-1-yl) amide] | 2.2 | 22 | – | 48 | – | – | – |
| Cc1nc(Nc2ccc(Br)cc2)sc1C(=O)N[C@H](C)c1ccc([N+](=O)[O-])cc1 [Compound 22, 2-(4-bromo-phenylamino)-4-methyl-thiazole-5-carboxylic acid (R)-1-(4-nitrophenyl)ethyl amide] | >2.6 | 11.7 | > 30 | – | – | – | – |
| Cc1cccc(C)c1Nc1nc(C(=O)N[C@H](C)c2ccc([N+](=O)[O-])cc2)cs1 [Compound 43, 2-(2,6-dimethyl-phenylamino)-thiazole-4-carboxylic acid (R)-1-(4-nitro-phenyl)ethyl amide] | 1.8 | 18.9 | 35 | – | – | – | – |
| Cc1cc(C)cc(Nc2nc(C(=O)N[C@@H]3CCC[C@H]3OCc3ccccc3)cs2)c1 [Compound 45, 2-(3,5-dimethyl-phenylamino)-thiazole-4-carboxylic acid (1R,2R)-2-(benzyloxycyclopent-1-yl)-amide] | 28.0 | 1.3 | 37 | – | – | – | – |
| Cc1nc(Nc2ccc(Br)cc2)sc1C(=O)NCc1cc(C(F)(F)F)cc(C(F)(F)F)c1 [Compound 24, 2-(4-bromo-phenylamino)-4-methyl-thiazole-5-carboxylic acid 3,5-bis-trifluoromethyl-benzylamide] | >1.7 | 17.1 | > 30 | – | – | – | – |
| COc1ccccc1Nc1nc(C)c(C(=O)NCc2cc(C)ccc2C)s1 [Compound 160, 2-(2-methoxy-phenylamino)-4-methyl-thiazole-5-carboxylic acid 2,5-dimethyl-benzylamide] | – | – | – | – | 124.1 to 124.9 | 90 | 99 |
| COc1ccccc1Nc1nc(C)c(C(=O)NCc2ccc(-c3csnn3)cc2)s1 [Compound 161, 2-(2-methoxy-phenylamino)-4-methyl-thiazole-5-carboxylic acid 4-[1,2,3]thiadiazol-4-yl-benzylamide] | – | – | – | – | 191.6 to 194.5 | 75 | 89 |
